# Assay results from patent US4634706A, “Griseolic acid derivatives, and their use as enzyme inhibitors” (Sankyo Company Limited, priority 1983, dated 1987).
# Experiments:
# blood viscosity = assay: Improvement in blood viscosity; format: in vivo, male Wistar rats; design: key to blood viscosity, shear rates without significant rise after ligation: for each shear rate where no significant rise in […] was noted (P<0.05) between the pre-ligation and post-ligation values there is printed a single plus sign (+); ++++: no significant difference in viscosity between the pre-ligation and post-ligation values at any of the four shear rates; conditions: for minimal effective dose: Rattus norvegicus, read-out: dose at which significant improvement (i.e. stabilisation) in blood viscosity was achieved
# Protocol: The test animals were male Wistar rats; they were employed in groups of five for each test. The rats were anaesthetized with pentobartibal and simultaneously the test compound was administered orally at the dose specified in Table 5 in a carboxymethyl cellulose suspension. Promptly, an incision was made in the neck and a 0.5 ml blood sample was collected from the jugular vein. The viscosity of this sample was determined by means of a rotational viscometer.
# Thirty minutes after oral administration, the common carotid artery was ligated bilaterally. One hour thereafter (i.e. 90 minutes after oral administration), a further 0.5 ml blood sample was collected from the jugular vein and its viscosity was determined in the same manner.
# The mean blood viscosity of each test animal and its standard deviation were calculated for each of the four shear rates (37.5, 75, 150 and 375 s^-1) of the rotational viscometer. The pre-ligation and post-ligationvalues of each group (i.e. the change over a period of 60 minutes) were analysed by the statistical t-test. The results are reported in Table 5 as follows: for each shear rate where no significant rise in […] was noted (P<0.05) between the pre-ligation and post-ligation values there is printed a single plus sign (+). Thus, for example, if there was no significant difference in viscosity between the pre-ligation and post-ligation values at any of the four shear rates, the results will be ++++.
# cAMP PDE = assay: Phosphodiesterase (PDE) inhibitory activity, cAMP substrate; format: biochemical, rat
# Protocol: (§1) The test was carried out following essentially the method of A. L. Pichard and Y. U. Chung [Journal of Biological Chemistry, 251, 5726-5737 (1976)]. A crude enzymatic solution derived from rat brains was used as the source of cAMP PDE.
# (§2) ^14 C-labeled cAMP was used as the substrate. It was employed in a 0.2M Tris-hydrochloric acid buffer solution (pH 8.0) in an amount sufficient to provide a final concentration of 0.14 μM. "Tris" is tris(hydroxymethyl)aminomethane. The substrate solution was mixed with an appropriate amount of the compound under test dissolved in 2-5 μl of dimethyl sulfoxide and with 20 μl of a snake venom solution and 40 μl of the crude enzyme solution. Sufficient Tris-hydrochloric acid buffer was added to make a total volume of 100 μl. The mixture was allowed to react at 30° C. for 20 minutes. At the end of this time, the reaction mixture was treated with an Amberlite (trade mark) IRP-58 resin and the level of residual adenosine radioactivity in the product was determined.
# cGMP PDE = assay: Phosphodiesterase (PDE) inhibitory activity, cGMP substrate; format: biochemical; conditions: cGMP as substrate, crude enzyme from rat brains; read-out: I50 cGMP PDE
# Protocol: as §1, §2
# The experiment was repeated, except that cyclic guanosine monophosphate (cGMP) was employed as the substrate instead of cAMP. The I50 value against cGMP PDE was also calculated.
# cerebral blood flow = assay: Improving cerebral blood flow; format: in vivo, rabbit; conditions: 10 mg/kg
# Source text: The "duration (T1/2)" is the time in minutes required for the increase in cerebral blood flow to reduce by one half.
# erythrocytes = assay: Effect on recovery of erythrocyte flexibility reduced by acidosis; format: in vivo, rat; conditions: 50 mg/kg orally, blood pH 5.1, P < 0.05
# Protocol: Mature male rats were employed in this experiment in groups of five for each test. The compound under test was suspended in an aqueous solution of carboxymethylcellulose and administered orally. Two hours after administration, the rats were anaesthetized with pentobarbital and a 5 ml blood sample was taken from the heart. Its pH was adjusted to 5.1 and the sample was allowed to stand. The fluidity of the erythrocytes was tested by a slightly modified version of the method reported in the Journal of Clinical Pathology, 29, 855-858 (1976). Control animals were treated similarly, except that the carboxymethylcellulose solution contained no active compound. The results are reported as the mean values for each group plus or minus the statistical error and the statistical significance was calculated by comparison with the control group.
# [1] = system: anoxia-induced cerebral dysfunction; assay: Promotion of recovery from anoxia-induced cerebral dysfunction (EEG recovery); format: in vivo, rat; conditions: breathing terminated 120 seconds
# Protocol: In this experiment, the breathing of a rat was terminated for sufficient time for its EEG (electroencephalograph) trace to become flat and the time required for the EEG to show further activity after breathing had restarted was determined.
# The rat was immobilized by the administration of pancuronium bromide, and its spontaneous EEG was recorded. After the rat had been roused from anaesthesia, the compound under test suspended in an aqueous solution of carboxymethylcellulose was administered intraperitoneally to the rat. Throughout the experiment, the rat was caused to breathe artificially; 30 minutes after administration of the test compound, artificial breathing was terminated for 120 seconds. After breathing again commenced, the time required for the EEG to recover (the recovery time) was determined.
# A control experiment was carried out in which a carboxymethylcellulose suspension alone was administered with no active compound.
# The recovery time is reported in the Table in seconds as the mean of the recovery times of all of the animals in the relevant test group plus or minus the statistical error.
# [2] = system: brain of rats with cerebral ischaemia; assay: Effect on sugar and high energy phosphate metabolism in the brain of rats with cerebral ischaemia; format: in vivo, rat; conditions: 1 mg/kg or 10 mg/kg intraperitoneal
# Protocol: Cerebral ischaemia was induced in rats and the sugar and high energy phosphate metabolism in the brain was investigated.
# Both carotid arteries of the test rats were ligated and, at the same time, the compound under test was administered by intraperitoneal injection. The amounts of sugars and metabolic products thereof (glucose and lactic acid) and high energy phosphate (ATP-adenosine triphosphate) in the brain were determined by the method of Lowry and Passonneau (A flexible system of enzymatic analysis, Academic Press, New York, 1972). When Compound No. 131 was administered at levels of 1 mg/kg or 10 mg/kg, there was observed an increase in glucose levels, a decrease in lactic acid levels and an increase in ATP levels in the rats with cerebral ischaemia.
# [3] = system: righting reflex and spontaneous locomotive activity; assay: Brain concussive test; format: in vivo; conditions: 10 mg/kg intraperitoneally, 17 mice
# Protocol: The test compound, suspended in an aqueous solution of carboxymethylcellulose, was administered intraperitoneally to mice. After 30 minutes, a 16 g weight was dropped from a height of 50 cm onto the head of each mouse, and the time was measured for each mouse to recover its righting reflex and spontaneous locomotive activity.
# A similar experiment was carried out as a control, using the carboxymethylcellulose solution without any active compound.
# The results are reported in Table 6 as the mean time (in seconds) plus or minus the statistical error. There were 20 mice in the control group and 17 mice in the group to which the test compound was administered.
# rats = assay: Toxicity (mortality of male Fisher rats, daily doses for four days); format: in vivo, male rats of the Fisher strain; conditions: 100 mg/kg daily
# Protocol: The compounds under test were griseolic acid and Compounds No. 26 and 51 from the list of compounds of the invention set out hereinabove. The test animals were male rats of the Fisher strain. The rats were employed in groups of five for each test.
# The compounds under test were administered at single daily doses of 50 mg/kg or 100 mg/kg throughout the four days of the test.
smiles,measurement,setting,value
"CCC(=O)Nc1ncnc2c1ncn2C1OC2=CC(C(=O)OC(c3ccccc3)c3ccccc3)(C(OC(=O)CC)C(=O)OC(c3ccccc3)c3ccccc3)OC2C1OC(=O)CC (centres unmarked) [Compound No. 10, dibenzhydryl N^6,O^2',O^7' -tripropionylgriseolate]","blood viscosity, shear rates without significant rise after ligation",blood viscosity; 30 mg/kg oral,++++
same,"blood viscosity, shear rates without significant rise after ligation",blood viscosity; 50 mg/kg oral,++++
same,minimal effective dose,blood viscosity; oral,≥ 50 mg/kg
"O=C(O)[C@H](O)C1(C(=O)O)C=C2OC(n3cnc4c(S)ncnc43)[C@H](O)C2O1 (some centres unmarked) [Compound No. 54, 6-desamino-6-mercaptogriseolic acid]",IC50,"cAMP PDE; 0.14 μM 14C-labeled cAMP, pH 8.0, 30° C., 20 minutes, crude enzyme from rat brains, read-out: I50 cAMP PDE",19 µM
same,minimal effective dose,blood viscosity; oral,≥ 50 mg/kg
same,IC50,cGMP PDE,9.1 µM
"CC(=O)OC1C2OC(C(=O)OC(c3ccccc3)c3ccccc3)(C(OC(C)=O)C(=O)OC(c3ccccc3)c3ccccc3)C=C2OC1n1cnc2c(=O)[nH]cnc21 (centres unmarked) [Compound No. 71, dibenzhydryl O^2',O^7' -diacetyl-6-desamino-6-hydroxygriseolate]",Duration (T 1/2),cerebral blood flow,> 1 h
same,"Increase in cerebral blood flow (Vp), ratio to papaverine 1 mg/kg",cerebral blood flow,3.0
same,Total number of passing erythrocytes × 10^9,erythrocytes,3.00 ± 0.16 × 10^9
"O=C(Nc1ncnc2c1ncn2C1OC2=CC(C(=O)O)([C@@H](OC(=O)c3ccccc3)C(=O)O)OC2[C@H]1OC(=O)c1ccccc1)c1ccccc1 (some centres unmarked) [Compound No. 131, N^6,O^2',O^7' -tribenzoylgriseolic acid]",Recovery time,"[1]; 10 mg/kg intraperitoneally, n=8",14.5 ± 1.2 s
same,Recovery time,"[1]; 30 mg/kg intraperitoneally, n=8, P < 0.05",13.8 ± 1.3 s
same,Total number of passing erythrocytes × 10^9,erythrocytes,3.30 ± 0.28 × 10^9
same,ATP levels in brain,[2],increase
same,glucose levels in brain,[2],increase
same,lactic acid levels in brain,[2],decrease
same,"blood viscosity, shear rates without significant rise after ligation",blood viscosity; 30 mg/kg oral,+
same,"blood viscosity, shear rates without significant rise after ligation",blood viscosity; 100 mg/kg oral,++++
same,minimal effective dose,blood viscosity; oral,≥ 30 mg/kg
"Nc1ncnc2c1ncn2C1OC23OC(C(=O)OC(c4ccccc4)c4ccccc4)C(C(=O)OC(c4ccccc4)c4ccccc4)(OC2C1O)C3Br (stereo not drawn) [Compound No. 202, dibenzhydryl 4',7'-anhydro-5'α-bromo-4'α-hydroxygriseolate]","Recovery time, righting reflex",[3],20.9 ± 2.9 s
same,"Recovery time, spontaneous locomotive activity",[3]; P < 0.05,72.8 ± 15.7 s
same,"blood viscosity, shear rates without significant rise after ligation",blood viscosity; 10 mg/kg oral,+
same,dose levels at which significant improvement (i.e. stabilisation) in blood viscosity was achieved,"blood viscosity; oral, in words",all dose levels
"Nc1ncnc2c1ncn2C1OC2=CC(C(=O)O)([C@@H](O)C(=O)O)OC2[C@H]1O (some centres unmarked) [Griseolic acid, griseolic acid]",ability to inhibit cAMP phosphodiesterase,cAMP PDE; in words,has the ability to inhibit the activity of cyclic adenosine monophosphate (cAMP) phosphodiesterase (PDE)
same,mortality after day 3,rats; after day 3,3/5
same,mortality for the first two days,rats; first two days,0/5
same,mortality at the end of the test,"rats; four days, male Fisher rats",3/5
